Source: PMC6057649, “Development of NanoLuc-PEST expressing Leishmania mexicana as a new drug discovery tool for axenic- and intramacrophage-based assays” (PLoS Neglected Tropical Diseases, 2018)
pEC50: −log10 of the molar value.

System: NanoLuc-PEST expressing L. mexicana axenic amastigotes
Assay: microbe, parasite or virus in culture
Assay type: cell-based
Settings: for Relative Bioluminescence (%): 72 hours, relative to DMSO only control, n = 4; for pEC50: hit compounds from the axenic amastigote screen, S3 Table, read-out: EC50, Axenic Amastigotes

Row | SMILES | Relative Bioluminescence (%) (2 µM compound) | Relative Bioluminescence (%) (10 µM compound) | pEC50
1 | COC(=O)c1cccc2oc(-c3cccc(OC)c3NC(=O)c3cc(-c4ccccc4)on3)nc12 [MMV676186] | 83.95% | 21.54% | 
2 | CC1(O)CC(c2nc(-c3ccc4ccc(-c5ccccc5)nc4c3)c3c(N)nccn23)C1 (centres unmarked) [MMV676605] | 81.06% | 84.63% | 
3 | Cc1cc(Cl)c(S(=O)(=O)N2CCCC2)cc1OCC(=O)NC1CCCCC1 [MMV006833] | 98.68% | 81.43% | 
4 | Clc1cccc(CO[C@H]2CCc3ccccc3[C@@H]2n2ccnn2)c1 [MMV676159] | 101.47% | 98.27% | 
5 | CNc1snc(C)c1C(=O)NCCOc1ccc(OC)cc1 [MMV688554] | 117.68% | 66.57% | 
6 | CN1CCN(c2nccc3[nH]c(-c4cccc(F)c4)cc23)CC1 [MMV393144] | 92.24% | 81.97% | 
7 | CC(C)(C)c1ccc(N[C@@H]2CCCC[C@H]2NC(=O)c2ccco2)cc1 [MMV675969] | 104.76% | 77.56% | 
8 | CCCCS(=O)(=O)Nc1ccc2cnn(C)c2c1 [MMV687145] | 132.61% | 130.77% | 
9 | Cc1cc(NC(=O)c2ccc(Oc3ccc(Cl)cc3O)o2)no1 [MMV688955] | 95.96% | 96.76% | 
10 | COc1ccc(-c2cc(NC(=O)c3ccc(F)cc3Cl)ccc2OC)cc1 [MMV676526] | 103.78% | 46.48% | 
11 | Nc1ncc(Br)cc1-c1nc2cc(Cl)cnc2[nH]1 [MMV676358] | 93.00% | 64.12% | 
12 | CCOc1ccc2cc(-c3nn(CC4CCN(C)CC4)c4ncnc(N)c34)ccc2c1 [MMV688854] | 92.07% | 66.13% | 
13 | COc1ccc(N(CCc2cccc(C)n2)C(C)=O)cc1 [MMV675995] | 51.88% | 31.11% | 
14 | COc1ccccc1C(C)NCC(=O)Nc1cc(C(F)(F)F)ccc1Cl (centres unmarked) [MMV020321] | 118.65% | 131.13% | 
15 | CCOC(=O)c1noc(N)c1-c1ccccc1 [MMV1236379] | 77.18% | 52.39% | 
16 | COc1cc2ncnc(NC3CCN(Cc4ccccc4)CC3)c2cc1OC [MMV006741] | 83.56% | 113.49% | 
17 | CC(=O)OCC1OC([S-])C(OC(C)=O)C(OC(C)=O)C1OC(C)=O.CCP(CC)CC.[Au+] (centres unmarked) [MMV688978, Auranofin, reference compound] | -2.60% | -2.20% | 6.77
18 | O=C(c1ccc(F)cc1)N(CCNc1ccccc1)c1ccccc1 [MMV676204] | 116.49% | 99.37% | 
19 | NC(CC(=O)c1ccc(Cl)cc1Cl)C(Cl)(Cl)Cl (centres unmarked) [MMV676468] | 106.85% | 84.33% | 
20 | Cc1ccc2oc(-c3cc(NC(=O)Cc4ccccc4)ccc3Cl)nc2c1 [MMV676509] | 92.05% | 59.65% | 
21 | O=C(c1n[nH]c2c1CCCC2)N1CCN(Cc2ccc3c(c2)OCO3)CC1 [MMV676389] | 67.21% | 71.87% | 
22 | COc1cccc(OC)c1C(=O)Nc1ccc(Cl)c(-c2nc3ccccc3s2)c1 [MMV676472] | 106.46% | 93.04% | 
23 | CCCCN(CCCC)c1c(C#N)cc(S(=O)(=O)Nc2ccccc2)cc1C#N [MMV688467] | 6.98% | 2.46% | 5.78
24 | O=C(N[C@H](Cc1ccccc1)C(=O)Nc1ccccc1N1CCOCC1)c1cccs1 [MMV688845] | 64.60% | 67.13% | 
